Measured values: patent US7488712B2, “Histone deacetylase inhibitors and methods for producing the same” (Kyushu Institute of Technology, priority 2002, dated 2009)
One block for each compound: values may come before it. *1 amine or outer side, *2 acyl side, *3 side chain or, on linkers, in order; H or OH if unused. Where a SMILES comes first, the peptide text is derived from it. Bridges are numbered along the chain shown (N, C = ends). Roman numbers before positions name the chains, in order. [ ]: non-standard residue; d: D form. hNle(7-SH) = O=C([C@H](CCCCCS[*:3])N[*:1])[*:2]; Gly((CH2)5SH) = N[C@@H](CCCCCS)C(=O)O; Pip = O=C(O)[C@@H]1CCCCN1; dPip = O=C(O)[C@H]1CCCCN1

How the values were obtained:
mouse HDAC6 = molecular target: T1, mouse HDAC6 (Mus musculus, UniProt Q9Z2V5); assay: In vitro HDAC inhibition activity, [3H]-acetylated histone substrate, HDAC6; assay type: biochemical
T1 construct: HA; made in house; host or cells: 293T cells (transient transfection, anti-HA immunoprecipitation, HA peptide elution)
T1 sequence (Q9Z2V5 1-1149): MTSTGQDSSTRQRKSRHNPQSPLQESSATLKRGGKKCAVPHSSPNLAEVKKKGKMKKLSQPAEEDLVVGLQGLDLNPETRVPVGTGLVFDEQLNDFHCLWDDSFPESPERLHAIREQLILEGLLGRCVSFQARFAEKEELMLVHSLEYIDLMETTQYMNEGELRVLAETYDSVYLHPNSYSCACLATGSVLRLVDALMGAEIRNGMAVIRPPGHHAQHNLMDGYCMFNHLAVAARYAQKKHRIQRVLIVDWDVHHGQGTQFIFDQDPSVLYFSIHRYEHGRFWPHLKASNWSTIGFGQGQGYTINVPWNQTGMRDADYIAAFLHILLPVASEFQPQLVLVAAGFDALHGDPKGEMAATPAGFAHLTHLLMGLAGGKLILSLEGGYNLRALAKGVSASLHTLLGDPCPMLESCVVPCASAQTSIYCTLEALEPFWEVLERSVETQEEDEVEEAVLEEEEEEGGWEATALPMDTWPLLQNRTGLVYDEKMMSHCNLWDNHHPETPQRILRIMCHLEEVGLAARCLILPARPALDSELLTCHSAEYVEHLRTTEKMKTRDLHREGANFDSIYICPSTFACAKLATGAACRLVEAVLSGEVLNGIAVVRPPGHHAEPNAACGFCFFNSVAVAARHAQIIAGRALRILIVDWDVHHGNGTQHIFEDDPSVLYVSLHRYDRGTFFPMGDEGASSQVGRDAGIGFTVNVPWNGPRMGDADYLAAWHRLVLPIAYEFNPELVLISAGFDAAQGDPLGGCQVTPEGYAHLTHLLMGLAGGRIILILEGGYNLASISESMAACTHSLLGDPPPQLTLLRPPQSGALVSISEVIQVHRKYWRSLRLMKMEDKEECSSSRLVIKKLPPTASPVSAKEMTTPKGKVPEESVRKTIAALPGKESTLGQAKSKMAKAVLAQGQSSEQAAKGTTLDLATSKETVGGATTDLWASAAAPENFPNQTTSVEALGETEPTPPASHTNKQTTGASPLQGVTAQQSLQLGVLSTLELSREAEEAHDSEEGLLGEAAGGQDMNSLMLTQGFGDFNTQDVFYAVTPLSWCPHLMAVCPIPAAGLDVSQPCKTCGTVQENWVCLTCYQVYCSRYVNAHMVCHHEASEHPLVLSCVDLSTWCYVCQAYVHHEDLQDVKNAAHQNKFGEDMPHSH
Experimental: (§1) To measure HDAC inhibition activity, an HDAC solution was prepared as described below. 1×10^7 of 293T cells were plated on to a 100-mm dish and, after 24 hours, transfected with vectors (1 μg) expressing human HDAC1 and HDAC4 or mouse HDAC6, using LipofectAmine 2000 reagent (Life Technologies, Inc. Gaithersburg, Md.). […] The vectors were introduced for five hours in OPTI-MEM. The medium was then replaced with Dulbecco's modified Eagle's medium (DMEM), and incubated for 19 hours. The cells were washed with PBS, suspended in lysis buffer (50 mM Tris-HCl (pH7.5), 120 mM NaCl, 5 mM EDTA, and 0.5% Nonidet P-40), and sonicated. The supernatant was collected by centrifugation and nonspecific protein was removed using Protein A/G plus agarose beads (Santa Cruz Biotechnologies, Inc.). Anti-FLAG M2 antibodies (Sigma-Aldrich, Inc.) were added to the supernatant of cells expressing HDAC1 or HDAC4. Anti-HA antibodies (clone 3F10, Roche Molecular Biochemicals) were added to the supernatant of cells expressing HDAC6. Reaction in the respective mixtures was carried out at 4° C. for one hour. The resulting reaction mixtures were independently mixed with agarose beads and further reacted at 4° C. for one hour. The agarose beads were washed three times with lysis buffer and then washed once with HD buffer (20 mM Tris-HCl (pH8.0), 150 mM NaCl, 10% glycerol, and a complete protease inhibitor cocktail (Boehringer Mannheim, Germany)). […] The HDAC reaction solution was used for determining HDAC inhibition activity as shown below.
(§2) In vitro HDAC inhibition activity was evaluated as follows: A test compound was dissolved in DMSO and adjusted to 10 mM. This was used as an inhibitor stock solution. […] These reactions were stopped by adding 10 μl HCl. The [^3H] acetic acid excised by the enzyme reaction was extracted with ethyl acetate and subjected to radioactive dose measurement. As a negative control, the same procedure was carried out in which no inhibitor was added to the reaction system. The inhibition activity was expressed as a 50% inhibition concentration (“IC50 (nM)”) of the HDAC activity in the negative control (Tables 1 to 4).

human HDAC1 = molecular target: T2, human HDAC1 (Homo sapiens, UniProt Q13547); assay: In vitro HDAC inhibition activity, [3H]-acetylated histone substrate, HDAC1; assay type: biochemical
T2 construct: FLAG; made in house; host or cells: 293T cells (transient transfection, anti-FLAG immunoprecipitation, FLAG peptide elution)
T2 sequence (Q13547 whole entry): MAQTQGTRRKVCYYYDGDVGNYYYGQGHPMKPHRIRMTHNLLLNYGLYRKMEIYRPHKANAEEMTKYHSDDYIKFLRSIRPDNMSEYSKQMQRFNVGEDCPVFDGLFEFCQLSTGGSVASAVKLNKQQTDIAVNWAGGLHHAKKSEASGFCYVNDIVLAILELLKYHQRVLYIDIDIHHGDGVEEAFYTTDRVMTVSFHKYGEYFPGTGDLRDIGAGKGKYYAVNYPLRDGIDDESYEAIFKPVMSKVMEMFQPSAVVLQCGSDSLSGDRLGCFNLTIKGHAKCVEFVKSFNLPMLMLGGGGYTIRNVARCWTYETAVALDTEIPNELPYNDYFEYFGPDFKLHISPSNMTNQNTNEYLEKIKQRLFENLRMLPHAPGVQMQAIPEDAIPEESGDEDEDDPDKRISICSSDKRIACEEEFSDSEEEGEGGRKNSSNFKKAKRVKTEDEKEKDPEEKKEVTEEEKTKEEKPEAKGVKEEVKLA
Experimental: as §1, §2

[1] = test system: human wild-type p21 promoter; assay: p21 promoter-inducing activity (luciferase) in MFLL-9 cells; assay type: cell-based
Experimental: The HDAC inhibition activity in vivo was measured using p21 promoter-inducing activity as an index, as shown below. The MFLL-9 cells employed for the experiments stably maintained fusion genes of human wild-type p21 promoter and luciferase (Dr. B. Vogelstaein). Using phenol red-free DMEM medium comprising 10% FBS, cultivation was carried out in a steam-saturated incubator at 37° C. with 5% carbon dioxide. The MFLL-9 cells were plated at a density of 85,000 cells/well on a 96-well microtiter plate, each in 99 μl of the above-mentioned medium. These were then cultivated for six hours. One μl of test compound solution was added to each well, which was then cultured for another 18 hours.
The intensity of luminescence caused by the product of the enzyme reaction for intracellular luciferase expression was measured using Luc Lite (Packard BioScience Company). A group in which test compounds were not added was used as a negative control group. The values measured for this group were used as a standard. The activities for each concentration of added test compound were expressed relative to the above-mentioned standard value, 1.

human HDAC4 = molecular target: T3, human HDAC4 (Homo sapiens, UniProt P56524); assay: In vitro HDAC inhibition activity, [3H]-acetylated histone substrate, HDAC4; assay type: biochemical
T3 construct: FLAG; made in house; host or cells: 293T cells (transient transfection, anti-FLAG immunoprecipitation, FLAG peptide elution)
T3 sequence (O15379 whole entry partner): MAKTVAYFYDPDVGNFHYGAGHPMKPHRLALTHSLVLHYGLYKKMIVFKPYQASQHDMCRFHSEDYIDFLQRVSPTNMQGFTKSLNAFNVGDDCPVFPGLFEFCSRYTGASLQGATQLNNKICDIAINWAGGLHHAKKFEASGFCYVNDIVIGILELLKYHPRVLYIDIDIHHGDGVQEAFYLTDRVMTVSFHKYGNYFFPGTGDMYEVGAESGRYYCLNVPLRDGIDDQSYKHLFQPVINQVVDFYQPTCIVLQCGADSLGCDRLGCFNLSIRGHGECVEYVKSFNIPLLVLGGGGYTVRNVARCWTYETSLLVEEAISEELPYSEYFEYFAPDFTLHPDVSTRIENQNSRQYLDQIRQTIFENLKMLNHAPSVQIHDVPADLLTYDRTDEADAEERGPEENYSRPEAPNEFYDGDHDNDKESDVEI
T3 sequence (P56524 whole entry): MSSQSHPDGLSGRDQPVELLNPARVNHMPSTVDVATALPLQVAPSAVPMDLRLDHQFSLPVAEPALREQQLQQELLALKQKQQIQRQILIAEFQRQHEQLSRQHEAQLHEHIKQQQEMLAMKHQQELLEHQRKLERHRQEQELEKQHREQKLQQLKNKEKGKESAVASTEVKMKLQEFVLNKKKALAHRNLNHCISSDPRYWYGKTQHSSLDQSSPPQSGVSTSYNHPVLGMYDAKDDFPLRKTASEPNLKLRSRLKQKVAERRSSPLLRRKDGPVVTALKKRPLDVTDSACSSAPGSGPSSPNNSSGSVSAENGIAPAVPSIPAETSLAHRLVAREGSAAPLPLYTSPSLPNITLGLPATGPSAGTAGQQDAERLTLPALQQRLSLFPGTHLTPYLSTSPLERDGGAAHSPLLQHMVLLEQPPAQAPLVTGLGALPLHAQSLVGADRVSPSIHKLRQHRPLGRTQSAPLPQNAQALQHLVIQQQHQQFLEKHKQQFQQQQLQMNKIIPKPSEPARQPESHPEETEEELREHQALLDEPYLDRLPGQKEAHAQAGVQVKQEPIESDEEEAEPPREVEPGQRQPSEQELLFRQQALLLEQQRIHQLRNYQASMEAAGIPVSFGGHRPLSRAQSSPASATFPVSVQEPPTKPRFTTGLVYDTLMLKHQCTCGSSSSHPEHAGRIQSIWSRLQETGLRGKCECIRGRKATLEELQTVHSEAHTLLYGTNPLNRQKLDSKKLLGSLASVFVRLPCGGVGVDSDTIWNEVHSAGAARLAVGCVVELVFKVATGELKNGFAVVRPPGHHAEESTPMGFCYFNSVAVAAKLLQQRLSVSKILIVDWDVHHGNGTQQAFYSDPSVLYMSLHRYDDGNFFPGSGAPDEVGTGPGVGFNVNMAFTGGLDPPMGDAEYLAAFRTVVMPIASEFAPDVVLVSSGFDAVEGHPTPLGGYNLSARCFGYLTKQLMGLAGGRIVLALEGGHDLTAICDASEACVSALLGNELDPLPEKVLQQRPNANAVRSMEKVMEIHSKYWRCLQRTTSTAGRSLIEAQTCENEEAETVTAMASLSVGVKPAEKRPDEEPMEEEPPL
Experimental: as §1, §2

[2] = Table 1, X = H (coexisting with DTT)
[3] = Table 1, X = H (coexisting with DTT), 50% of maximum active value for TSA
[4] = Table 3, hybrid with DTT (/DTT)

IC50 (mouse HDAC6; [2]): > 500000 nM
IC50 (human HDAC1; [2]): 81.4 nM
EC50 [1, 3]: 6.72 µM
IC50 (human HDAC4; [2]): 17 nM
Structure (SMILES): CC[C@H](C)[C@@H]1NC(=O)[C@@H](Cc2ccc(OC)cc2)NC(=O)[C@H](CCCCCS)NC(=O)[C@@H]2CCCN2C1=O [SCOP 148] (cyclo([Gly((CH2)5SH)][dY](Me)IP))

IC50 (mouse HDAC6; Table 2, homodimer): > 500000 nM
IC50 (human HDAC1; Table 2, homodimer): 7200 nM
EC50 ([1]; Table 2, homodimer): > 100 µM
IC50 (human HDAC4; Table 2, homodimer): > 500000 nM
Structure (SMILES): CC[C@H](C)[C@@H]1NC(=O)[C@@H](Cc2ccc(OC)cc2)NC(=O)[C@H](CCCCSSCCCC[C@@H]2NC(=O)[C@H]3CCCN3C(=O)[C@H]([C@@H](C)CC)NC(=O)[C@@H](Cc3ccc(OC)cc3)NC2=O)NC(=O)[C@H]2CCCN2C1=O [SCOP 302, cyclo(-L-Am6(-)-D-Tyr(Me)-L-Ile-D-Pro-]

IC50 (mouse HDAC6; Table 2, homodimer): 418000 nM
IC50 (human HDAC1; Table 2, homodimer): 114 nM
EC50 ([1]; Table 2, homodimer): 5.8 µM
IC50 (human HDAC4; Table 2, homodimer): 33.7 nM
Structure (SMILES): CC[C@H](C)[C@@H]1NC(=O)[C@@H](Cc2ccc(OC)cc2)NC(=O)[C@H](CCCCCSSCCCCC[C@@H]2NC(=O)[C@@H]3CCCCN3C(=O)[C@H]([C@@H](C)CC)NC(=O)[C@@H](Cc3ccc(OC)cc3)NC2=O)NC(=O)[C@@H]2CCCCN2C1=O [SCOP 298, cyclo(-L-Am7(-)-D-Tyr(Me)-L-Ile-L-Pip-] (I: cyclo([hNle(7-SH)][dY](Me)I[Pip]) / II: cyclo([hNle(7-SH)][dY](Me)I[Pip]); disulfide I:1-II:1)

IC50 (mouse HDAC6; [2]): 5560 nM
IC50 (human HDAC1; [2]): 2.1 nM
EC50 [1, 3]: 0.504 µM
IC50 (human HDAC4; [2]): 4.26 nM
Structure (SMILES): CC[C@H](C)[C@@H]1NC(=O)[C@@H](Cc2ccc(OC)cc2)NC(=O)[C@H](CCCCCS)NC(=O)[C@H]2CCCCN2C1=O [SCOP 150] (cyclo([Gly((CH2)5SH)][dY](Me)I[dPip]))

IC50 (mouse HDAC6; Table 2, homodimer): 745000 nM
IC50 (human HDAC1; Table 2, homodimer): 983 nM
EC50 ([1]; Table 2, homodimer): 235 µM
IC50 (human HDAC4; Table 2, homodimer): 505 nM
Structure (SMILES): CC[C@H](C)[C@@H]1NC(=O)[C@@H](Cc2ccc(OC)cc2)NC(=O)[C@H](CCCCCCCSSCCCCCCC[C@@H]2NC(=O)[C@H]3CCCN3C(=O)[C@H]([C@@H](C)CC)NC(=O)[C@@H](Cc3ccc(OC)cc3)NC2=O)NC(=O)[C@H]2CCCN2C1=O [SCOP 308, cyclo(-L-Am9(-)-D-Tyr(Me)-L-Ile-D-Pro-]

IC50 (mouse HDAC6; [4]): 15400 nM
IC50 (mouse HDAC6; Table 3, hybrid, without DTT): 201000 nM
IC50 (human HDAC1; [4]): 2.44 nM
IC50 (human HDAC1; Table 3, hybrid, without DTT): 217 nM
EC50 [1, 4]: 0.754 µM
EC50 ([1]; Table 3, hybrid, without DTT): 1.36 µM
IC50 (human HDAC4; [4]): 13 nM
IC50 (human HDAC4; Table 3, hybrid, without DTT): 355 nM
Structure (SMILES): CC[C@H](C)[C@@H]1NC(=O)[C@@H](Cc2ccc(OC)cc2)NC(=O)[C@H](CCCCCSSCCO)NC(=O)[C@H]2CCCN2C1=O [SCOP 404, cyclo(-L-Am7(SMEt)-D-Tyr(Me)-L-Ile-D-Pro-)]

IC50 (mouse HDAC6; Table 2, homodimer): 1.32e+06 nM
IC50 (human HDAC1; Table 2, homodimer): 153 nM
IC50 (human HDAC4; Table 2, homodimer): 319 nM
Structure (SMILES): CC[C@H](C)[C@@H]1NC(=O)[C@@H](Cc2ccc(OC)cc2)NC(=O)[C@H](CCCCCCSSCCCCCC[C@@H]2NC(=O)[C@H]3CCCN3C(=O)[C@H]([C@@H](C)CC)NC(=O)[C@@H](Cc3ccc(OC)cc3)NC2=O)NC(=O)[C@H]2CCCN2C1=O [SCOP 306, cyclo(-L-Am8(-)-D-Tyr(Me)-L-Ile-D-Pro-]
